Legend:
Format in all cases: in vivo
[1] = test system: barnyardgrass (Echinochloa crus-galli); assay: Test G Pre-Emergence Protocol; conditions: Echinochloa crus-galli, pre-emergence, 312 h, evaluated after 13 days; for pest or weed control at 15.625 g/ha: 15.625 g ai/ha, read-out: Barnyard grass damage rating (100=total damage to plant; 0=no damage to plant); for pest or weed control at 62.5 g/ha: 62.5 g ai/ha, 100=total damage to plant, 0=no damage to plant, read-out: plant damage rating, Barnyardgrass; for pest or weed control at 250 g/ha: 250 g ai/ha, read-out: Barnyardgrass damage rating (100=total damage to plant; 0=no damage to plant)
Summary of the method: (§1)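 Scores are visual damage ratings from 0 (no damage) to 100 (total plant kill), taken 13 days after treatment. Compound was sprayed one day post-sowing at 15.625, 62.5 or 250 g/ha in 50:50 acetone/water with 0.5% Tween 20.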

corn (Zea mays) [2] = assay: Test G Pre-Emergence Protocol; conditions: Zea mays, pre-emergence, 312 h, evaluated after 13 days; for plant injury at 15.625 g/ha: 15.625 g ai/ha; for plant injury at 15.625 g/ha / plant injury at 250 g/ha: read-out: Corn damage rating (100=total damage to plant; 0=no damage to plant); for plant injury at 62.5 g/ha: 62.5 g ai/ha, 100=total damage to plant, 0=no damage to plant, read-out: plant damage rating, Corn; for plant injury at 250 g/ha: 250 g ai/ha
Summary of the method: as §1

[3] = test system: giant foxtail (Setaria faberi); assay: Test G Pre-Emergence Protocol; conditions: Setaria faberi, pre-emergence, 312 h, evaluated after 13 days; for pest or weed control at 15.625 g/ha: 15.625 g ai/ha; for pest or weed control at 15.625 g/ha / pest or weed control at 250 g/ha: read-out: Foxtail, Giant damage rating (100=total damage to plant; 0=no damage to plant); for pest or weed control at 62.5 g/ha: 62.5 g ai/ha, 100=total damage to plant, 0=no damage to plant, read-out: plant damage rating, Foxtail, Giant; for pest or weed control at 250 g/ha: 250 g ai/ha
Summary of the method: as §1

[4] = test system: ivy-leaved morning glory (Ipomoea hederacea); assay: Test G Pre-Emergence Protocol; conditions: Ipomoea, pre-emergence, 312 h, evaluated after 13 days; for pest or weed control at 15.625 g/ha: 15.625 g ai/ha, read-out: Morning-glory, Ivy-leaved damage rating (100=total damage to plant; 0=no damage to plant); for pest or weed control at 62.5 g/ha: 62.5 g ai/ha, 100=total damage to plant, 0=no damage to plant, read-out: plant damage rating, Morningglory, Ivy-leaved; for pest or weed control at 250 g/ha: 250 g ai/ha, read-out: Morningglory, Ivy-leaved damage rating (100=total damage to plant; 0=no damage to plant)
Summary of the method: as §1

[5] = test system: redroot pigweed (Amaranthus retroflexus); assay: Test G Pre-Emergence Protocol; conditions: Amaranthus retroflexus, pre-emergence, 312 h, evaluated after 13 days; for pest or weed control at 15.625 g/ha: 15.625 g ai/ha; for pest or weed control at 15.625 g/ha / pest or weed control at 250 g/ha: read-out: Pigweed, Redroot damage rating (100=total damage to plant; 0=no damage to plant); for pest or weed control at 62.5 g/ha: 62.5 g ai/ha, 100=total damage to plant, 0=no damage to plant, read-out: plant damage rating, Pigweed, Redroot; for pest or weed control at 250 g/ha: 250 g ai/ha
Summary of the method: as §1

[6] = test system: velvetleaf (Abutilon theophrasti); assay: Test G Pre-Emergence Protocol; conditions: Abutilon theophrasti, pre-emergence, 312 h, evaluated after 13 days; for pest or weed control at 15.625 g/ha: 15.625 g ai/ha; for pest or weed control at 15.625 g/ha / pest or weed control at 250 g/ha: read-out: Velvetleaf damage rating (100=total damage to plant; 0=no damage to plant); for pest or weed control at 62.5 g/ha: 62.5 g ai/ha, 100=total damage to plant, 0=no damage to plant, read-out: plant damage rating, Velvetleaf; for pest or weed control at 250 g/ha: 250 g ai/ha
Summary of the method: as §1

[7] = test system: barnyardgrass (Echinochloa crus-galli); assay: Test G Post-Emergence Protocol; conditions: Echinochloa crus-galli, post-emergence, 312 h; for pest or weed control at 15.625 g/ha: 15.625 g ai/ha, evaluated after 13 days (100=total damage to plant; 0=no damage to plant), read-out: Barnyardgrass damage rating; for pest or weed control at 62.5 g/ha: 62.5 g ai/ha, read-out: Barnyardgrass damage rating (100=total damage to plant; 0=no damage to plant); for pest or weed control at 62.5 g/ha / pest or weed control at 250 g/ha: evaluated after 13 days; for pest or weed control at 250 g/ha: 250 g ai/ha, read-out: damage to plant, Barnyardgrass (100=total damage to plant; 0=no damage to plant)
Summary of the method: (§2)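 Seedlings grown 8 days in soil in a glasshouse (24/16 °C day/night, 14 h light, 65% humidity) were sprayed post-emergence with compound in acetone/water 50:50 plus 0.5% Tween 20 at 15.625, 62.5 or 250 g/ha. Damage was scored after 13 days on a 0–100 scale (100 = total damage).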

corn (Zea mays) [8] = assay: Test G Post-Emergence Protocol; conditions: Zea mays, post-emergence, 312 h; for plant injury at 15.625 g/ha: 15.625 g ai/ha, evaluated after 13 days (100=total damage to plant; 0=no damage to plant), read-out: Corn damage rating; for plant injury at 62.5 g/ha: 62.5 g ai/ha, read-out: Corn damage rating (100=total damage to plant; 0=no damage to plant); for plant injury at 62.5 g/ha / plant injury at 250 g/ha: evaluated after 13 days; for plant injury at 250 g/ha: 250 g ai/ha, read-out: damage to plant, Corn (100=total damage to plant; 0=no damage to plant)
Summary of the method: as §2

[9] = test system: giant foxtail (Setaria faberi); assay: Test G Post-Emergence Protocol; conditions: Setaria faberi, post-emergence, 312 h; for pest or weed control at 15.625 g/ha: 15.625 g ai/ha, evaluated after 13 days (100=total damage to plant; 0=no damage to plant), read-out: Foxtail, Giant damage rating; for pest or weed control at 62.5 g/ha: 62.5 g ai/ha, read-out: Foxtail, Giant damage rating (100=total damage to plant; 0=no damage to plant); for pest or weed control at 62.5 g/ha / pest or weed control at 250 g/ha: evaluated after 13 days; for pest or weed control at 250 g/ha: 250 g ai/ha, read-out: damage to plant, Foxtail, Giant (100=total damage to plant; 0=no damage to plant)
Summary of the method: as §2

[10] = test system: ivy-leaved morning glory (Ipomoea hederacea); assay: Test G Post-Emergence Protocol; conditions: Ipomoea, post-emergence, 312 h; for pest or weed control at 15.625 g/ha: 15.625 g ai/ha, evaluated after 13 days (100=total damage to plant; 0=no damage to plant), read-out: Morningglory, Ivy-leaved damage rating; for pest or weed control at 62.5 g/ha: 62.5 g ai/ha, read-out: Morningglory, Ivy-leaved damage rating (100=total damage to plant; 0=no damage to plant); for pest or weed control at 62.5 g/ha / pest or weed control at 250 g/ha: evaluated after 13 days; for pest or weed control at 250 g/ha: 250 g ai/ha, read-out: damage to plant, Morningglory, Ivy-leaved (100=total damage to plant; 0=no damage to plant)
Summary of the method: as §2

[11] = test system: redroot pigweed (Amaranthus retroflexus); assay: Test G Post-Emergence Protocol; conditions: Amaranthus retroflexus, post-emergence, 312 h; for pest or weed control at 15.625 g/ha: 15.625 g ai/ha, evaluated after 13 days (100=total damage to plant; 0=no damage to plant), read-out: Pigweed, Redroot damage rating; for pest or weed control at 62.5 g/ha: 62.5 g ai/ha, read-out: Pigweed, Redroot damage rating (100=total damage to plant; 0=no damage to plant); for pest or weed control at 62.5 g/ha / pest or weed control at 250 g/ha: evaluated after 13 days; for pest or weed control at 250 g/ha: 250 g ai/ha, read-out: damage to plant, Pigweed, Redroot (100=total damage to plant; 0=no damage to plant)
Summary of the method: as §2

[12] = test system: velvetleaf (Abutilon theophrasti); assay: Test G Post-Emergence Protocol; conditions: Abutilon theophrasti, post-emergence, 312 h; for pest or weed control at 15.625 g/ha: 15.625 g ai/ha, evaluated after 13 days (100=total damage to plant; 0=no damage to plant), read-out: Velvetleaf damage rating; for pest or weed control at 62.5 g/ha: 62.5 g ai/ha, read-out: Velvetleaf damage rating (100=total damage to plant; 0=no damage to plant); for pest or weed control at 62.5 g/ha / pest or weed control at 250 g/ha: evaluated after 13 days; for pest or weed control at 250 g/ha: 250 g ai/ha, read-out: damage to plant, Velvetleaf (100=total damage to plant; 0=no damage to plant)
Summary of the method: as §2

Compound `CN1C[C@@H](c2ccnc(C(F)(F)F)c2)[C@H](C(=O)Nc2cccc(F)c2F)C1=O` (racemic) [Compound 1585] has a pest or weed control at 15.625 g/ha [1] of 70%, a pest or weed control at 62.5 g/ha [1] of 90% and a pest or weed control at 250 g/ha [1] of 90%. The plant injury at 15.625 g/ha (corn (Zea mays) [2]) was 0%, the plant injury at 62.5 g/ha (corn (Zea mays) [2]) was 80% and the plant injury at 250 g/ha (corn (Zea mays) [2]) was 80%. It also gave a pest or weed control at 15.625 g/ha [3] of 70%, a pest or weed control at 62.5 g/ha [3] of 80% and a pest or weed control at 250 g/ha [3] of 90%. The pest or weed control at 15.625 g/ha [4] was 0%, the pest or weed control at 62.5 g/ha [4] was 30% and the pest or weed control at 250 g/ha [4] was 80%. It also gave a pest or weed control at 15.625 g/ha [5] of 0%, a pest or weed control at 62.5 g/ha [5] of 0% and a pest or weed control at 250 g/ha [5] of 20%. It also gave a pest or weed control at 15.625 g/ha [6] of 0%, a pest or weed control at 62.5 g/ha [6] of 0% and a pest or weed control at 250 g/ha [6] of 30%. It also gave a pest or weed control at 15.625 g/ha [7] of 70%, a pest or weed control at 62.5 g/ha [7] of 80% and a pest or weed control at 250 g/ha [7] of 70%. It also gave a plant injury at 15.625 g/ha (corn (Zea mays) [8]) of 30%, a plant injury at 62.5 g/ha (corn (Zea mays) [8]) of 60% and a plant injury at 250 g/ha (corn (Zea mays) [8]) of 80%. The pest or weed control at 15.625 g/ha [9] was 60%, the pest or weed control at 62.5 g/ha [9] was 60% and the pest or weed control at 250 g/ha [9] was 70%. For the same compound, the pest or weed control at 15.625 g/ha [10] was 20%, the pest or weed control at 62.5 g/ha [10] was 30% and the pest or weed control at 250 g/ha [10] was 70%. The pest or weed control at 15.625 g/ha [11] was 0%, the pest or weed control at 62.5 g/ha [11] was 20% and the pest or weed control at 250 g/ha [11] was 30%. For the same compound, the pest or weed control at 15.625 g/ha [12] was 0%, the pest or weed control at 62.5 g/ha [12] was 20% and the pest or weed control at 250 g/ha [12] was 30%.
`Cc1c(F)ccc(NC(=O)[C@@H]2C(=O)N(C)C[C@H]2c2ccc(C(F)(F)F)cc2)c1F` (racemic) [Compound 1629] gave a pest or weed control at 15.625 g/ha [1] of 10%, a pest or weed control at 62.5 g/ha [1] of 0% and a pest or weed control at 250 g/ha [1] of 70%. It also gave a plant injury at 15.625 g/ha (corn (Zea mays) [2]) of 0%, a plant injury at 62.5 g/ha (corn (Zea mays) [2]) of 10% and a plant injury at 250 g/ha (corn (Zea mays) [2]) of 0%. For the same compound, the pest or weed control at 15.625 g/ha [3] was 30%, the pest or weed control at 62.5 g/ha [3] was 50% and the pest or weed control at 250 g/ha [3] was 80%. For the same compound, the pest or weed control at 15.625 g/ha [4] was 10%, the pest or weed control at 62.5 g/ha [4] was 40% and the pest or weed control at 250 g/ha [4] was 50%. The pest or weed control at 15.625 g/ha [5] was 0%, the pest or weed control at 62.5 g/ha [5] was 0% and the pest or weed control at 250 g/ha [5] was 0%. The pest or weed control at 15.625 g/ha [6] was 0%, the pest or weed control at 62.5 g/ha [6] was 0% and the pest or weed control at 250 g/ha [6] was 0%. For the same compound, the pest or weed control at 15.625 g/ha [7] was 0%, the pest or weed control at 62.5 g/ha [7] was 30% and the pest or weed control at 250 g/ha [7] was 70%. For the same compound, the plant injury at 15.625 g/ha (corn (Zea mays) [8]) was 0%, the plant injury at 62.5 g/ha (corn (Zea mays) [8]) was 10% and the plant injury at 250 g/ha (corn (Zea mays) [8]) was 10%. The pest or weed control at 15.625 g/ha [9] was 0%, the pest or weed control at 62.5 g/ha [9] was 80% and the pest or weed control at 250 g/ha [9] was 80%. For the same compound, the pest or weed control at 15.625 g/ha [10] was 20%, the pest or weed control at 62.5 g/ha [10] was 20% and the pest or weed control at 250 g/ha [10] was 30%. For the same compound, the pest or weed control at 15.625 g/ha [11] was 10%, the pest or weed control at 62.5 g/ha [11] was 10% and the pest or weed control at 250 g/ha [11] was 30%. For the same compound, the pest or weed control at 15.625 g/ha [12] was 20%, the pest or weed control at 62.5 g/ha [12] was 10% and the pest or weed control at 250 g/ha [12] was 0%.

From patent US12077503B2, “Substituted cyclic amides and their use as herbicides” (FMC CORPORATION, priority 2015, dated 2024)
